Reference: PubChem BioAssay (NCI)
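1) Cells in 96-well plates. 2) Compound, 48 h, 5 concentrations. 3) Linear interpolation between surrounding doses. 4) Unreached endpoint = highest concentration. TGI: concentration producing complete growth inhibition.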

Experiments:
Assay in all cases: NCI anticancer screen, dose series, 48 h
[1] = test system: OVCAR-5 ovarian
[2] = test system: SR leukemia
[3] = test system: KM12 colon
[4] = test system: SK-MEL-28 melanoma
[5] = test system: MDA-MB-435
[6] = test system: PC-3 prostate
[7] = test system: HCT-116 colon
[8] = test system: UO-31 renal
[9] = test system: NCI-H23 lung
[10] = test system: U251 CNS
[11] = test system: RPMI-8226 leukemia
[12] = test system: NCI-H522 lung
[13] = test system: A549 NSCLC
[14] = test system: OVCAR-4 ovarian
[15] = test system: K-562 leukemia
[16] = test system: MDA-N
[17] = test system: HOP-62 NSCLC
[18] = test system: IGROV1 ovarian
[19] = test system: MCF7 breast
[20] = test system: SF-539 CNS
[21] = test system: BT-549 breast
[22] = test system: SK-OV-3 ovarian
[23] = test system: DU-145 prostate
[24] = test system: NCI/ADR-RES ovarian
[25] = test system: NCI-H460 lung
[26] = test system: LOX IMVI melanoma
[27] = test system: SNB-19 CNS
[28] = test system: SK-MEL-5 melanoma
[29] = test system: UACC-257 melanoma
[30] = test system: COLO 205 colon
[31] = test system: HCC-2998 colon
[32] = test system: CCRF-CEM leukemia
[33] = test system: SN12C renal
[34] = test system: SNB-75 CNS
[35] = test system: SW-620 colon
[36] = test system: T-47D breast
[37] = test system: HOP-92 NSCLC
[38] = test system: 786-0 renal
[39] = test system: HCT-15 colon
[40] = test system: UACC-62 melanoma
[41] = test system: MDA-MB-231 breast
[42] = test system: OVCAR-3 ovarian
[43] = test system: M14 melanoma
[44] = test system: HL-60(TB) leukemia
[45] = test system: MOLT-4 leukemia
[46] = test system: HT29 colon
[47] = test system: OVCAR-8 ovarian
[48] = test system: SF-295 CNS
[49] = test system: EKVX NSCLC
[50] = test system: SF-268 CNS
[51] = test system: MALME-3M melanoma
[52] = test system: SK-MEL-2 melanoma
[53] = test system: ACHN renal
[54] = test system: A498 renal
[55] = test system: CAKI-1 renal
[56] = test system: NCI-H226 lung
[57] = test system: RXF 393 renal
[58] = test system: HS 578T breast
[59] = test system: TK-10 renal

COc1ccc(-c2nc(-c3cnccn3)n(C/C=C/c3ccccc3)n2)cc1
TGI [1]: > 100 µM
TGI [2]: > 100 µM
TGI [3]: > 100 µM
TGI [4]: > 100 µM
TGI [5]: > 100 µM
TGI [6]: > 100 µM
TGI [7]: > 100 µM
TGI [8]: > 100 µM
TGI [9]: > 100 µM
TGI [10]: > 100 µM
TGI [11]: > 100 µM
TGI [12]: > 100 µM
TGI [13]: > 100 µM
TGI [14]: 98.6 µM
TGI [15]: > 100 µM
TGI [16]: > 100 µM
TGI [17]: 60.3 µM
TGI [18]: > 100 µM
TGI [19]: > 100 µM
TGI [20]: > 100 µM
TGI [21]: > 100 µM
TGI [22]: > 100 µM
TGI [23]: > 100 µM
TGI [24]: > 100 µM
TGI [25]: > 100 µM
TGI [26]: > 100 µM
TGI [27]: > 100 µM
TGI [28]: > 100 µM
TGI [29]: > 100 µM
TGI [30]: > 100 µM
TGI [31]: > 100 µM
TGI [32]: > 100 µM
TGI [33]: > 100 µM
TGI [34]: 51.7 µM
TGI [35]: > 100 µM
TGI [36]: > 100 µM
TGI [37]: 37 µM
TGI [38]: 46.5 µM
TGI [39]: > 100 µM
TGI [40]: > 100 µM
TGI [41]: > 100 µM
TGI [42]: > 100 µM
TGI [43]: > 100 µM
TGI [44]: > 100 µM
TGI [45]: > 100 µM
TGI [46]: > 100 µM
TGI [47]: > 100 µM
TGI [48]: 73.4 µM

C[C@H](NC(=O)C(C)(Cc1ccc(O)cn1)NC(=O)c1ccccc1)c1ccccc1 (some centres not stated)
TGI [1]: > 100 µM
TGI [49]: > 100 µM
TGI [3]: > 100 µM
TGI [4]: > 100 µM
TGI [5]: > 100 µM
TGI [50]: > 100 µM
TGI [6]: > 100 µM
TGI [7]: > 100 µM
TGI [51]: > 100 µM
TGI [8]: > 100 µM
TGI [9]: > 100 µM
TGI [52]: > 100 µM
TGI [10]: > 100 µM
TGI [53]: > 100 µM
TGI [11]: > 100 µM
TGI [12]: > 100 µM
TGI [13]: > 100 µM
TGI [54]: > 100 µM
TGI [14]: > 100 µM
TGI [15]: > 100 µM
TGI [16]: > 100 µM
TGI [17]: > 100 µM
TGI [18]: > 100 µM
TGI [19]: > 100 µM
TGI [20]: > 100 µM
TGI [21]: > 100 µM
TGI [23]: > 100 µM
TGI [24]: > 100 µM
TGI [55]: > 100 µM
TGI [26]: > 100 µM
TGI [27]: > 100 µM
TGI [28]: > 100 µM
TGI [29]: > 100 µM
TGI [30]: > 100 µM
TGI [31]: > 100 µM
TGI [32]: > 100 µM
TGI [33]: > 100 µM
TGI [35]: > 100 µM
TGI [36]: > 100 µM
TGI [37]: > 100 µM
TGI [38]: > 100 µM
TGI [39]: > 100 µM
TGI [40]: > 100 µM
TGI [56]: > 100000 nM
TGI [41]: > 100 µM
TGI [42]: > 100 µM
TGI [43]: > 100 µM
TGI [44]: > 100 µM
TGI [45]: > 100 µM
TGI [57]: > 100 µM
TGI [46]: > 100 µM
TGI [58]: > 100 µM
TGI [47]: > 100 µM
TGI [48]: > 100 µM
TGI [59]: > 100 µM

Cc1noc(-c2ccc(C(=O)O)[nH]2)c1Br
TGI [1]: > 100 µM
TGI [49]: > 100 µM
TGI [3]: > 100 µM
TGI [4]: > 100 µM
TGI [5]: > 100 µM
TGI [50]: > 100 µM
TGI [6]: > 100 µM
TGI [7]: > 100 µM
TGI [51]: > 100 µM
TGI [8]: > 100 µM
TGI [9]: > 100 µM
TGI [52]: > 100 µM
TGI [10]: > 100 µM
TGI [53]: > 100 µM
TGI [11]: > 100 µM
TGI [12]: > 100 µM
TGI [13]: > 100 µM
TGI [54]: > 100 µM
TGI [14]: > 100 µM
TGI [15]: > 100 µM
TGI [16]: > 100 µM
TGI [17]: 77.3 µM
TGI [18]: > 100 µM
TGI [19]: > 100 µM
TGI [21]: > 100 µM
TGI [22]: > 100 µM
TGI [23]: > 100 µM
TGI [24]: > 100 µM
TGI [55]: > 100 µM
TGI [25]: > 100 µM
TGI [27]: > 100 µM
TGI [28]: > 100 µM
TGI [29]: > 100 µM
TGI [30]: > 100 µM
TGI [31]: > 100 µM
TGI [32]: > 100 µM
TGI [34]: > 100 µM
TGI [35]: > 100 µM
TGI [36]: 71.4 µM
TGI [37]: 84.3 µM
TGI [38]: 91.9 µM
TGI [39]: > 100 µM
TGI [40]: > 100 µM
TGI [41]: > 100 µM
TGI [42]: > 100 µM
TGI [43]: > 100 µM
TGI [45]: > 100 µM
TGI [57]: > 100 µM
TGI [46]: > 100 µM
TGI [58]: > 100 µM
TGI [47]: 32.2 µM
TGI [48]: > 100 µM
TGI [59]: > 100 µM

C=C1C(=O)O[C@@H]2C[C@@H](C)[C@@H]3C=CC(=O)[C@@]3(C)[C@@H](OC(=O)CCCC(=O)O[C@H]3[C@@H]4C(=C)C(=O)O[C@@H]4C[C@@H](C)[C@@H]4C=CC(=O)[C@]43C)[C@H]12
TGI [1]: 0.387 µM
TGI [49]: 0.264 µM
TGI [3]: 0.662 µM
TGI [4]: 0.136 µM
TGI [5]: 0.0329 µM
TGI [50]: 0.23 µM
TGI [6]: 0.299 µM
TGI [7]: 0.03 µM
TGI [51]: 0.0373 µM
TGI [8]: 0.289 µM
TGI [9]: 0.275 µM
TGI [52]: 0.34 µM
TGI [10]: 0.377 µM
TGI [53]: 0.11 µM
TGI [12]: 0.0253 µM
TGI [13]: 6.09 µM
TGI [54]: 0.546 µM
TGI [14]: 0.262 µM
TGI [15]: 0.0363 µM
TGI [16]: 0.0431 µM
TGI [17]: 2.61 µM
TGI [18]: 0.313 µM
TGI [19]: 0.805 µM
TGI [20]: 0.185 µM
TGI [21]: 0.07 µM
TGI [22]: 3.8 µM
TGI [23]: 0.957 µM
TGI [24]: 4.12 µM
TGI [55]: 0.187 µM
TGI [25]: 0.955 µM
TGI [26]: 0.152 µM
TGI [27]: 2.56 µM
TGI [28]: 0.293 µM
TGI [29]: 0.271 µM
TGI [30]: 0.111 µM
TGI [31]: 1.27 µM
TGI [32]: 1.45 µM
TGI [33]: 0.0938 µM
TGI [34]: 0.482 µM
TGI [35]: 0.0432 µM
TGI [36]: 0.0666 µM
TGI [37]: 0.104 µM
TGI [38]: 0.0448 µM
TGI [39]: 0.112 µM
TGI [40]: 0.103 µM
TGI [56]: 1350 nM
TGI [41]: 0.079 µM
TGI [42]: 0.275 µM
TGI [43]: 0.0584 µM
TGI [45]: 0.0634 µM
TGI [57]: 0.047 µM
TGI [46]: 0.152 µM
TGI [58]: 0.433 µM
TGI [47]: 0.0295 µM
TGI [48]: 3.13 µM
TGI [59]: 0.296 µM
